# PMC8953856, “α/β-Peptides as Nanomolar Triggers of Lipid Raft-Mediated Endocytosis through GM1 Ganglioside Recognition” (Pharmaceutics, 2022)
# No end group written: not given here.
# Assays:
# [1] = Protease assay with trypsin; format: in vitro ADME; details: trypsin (isolated protease) in buffer; 100 mM TRIS–HCl pH 8.0 without CaCl2; peptide 100 mM (so in the source); protease stock 0.5 mg/mL; samples at 2, 6, 25, 60 min; HPLC–MS; < 24 = peak not detected at 2 min, 3% detection limit
# [2] = Protease assay with chymotrypsin; format: in vitro ADME; details: chymotrypsin (isolated protease) in buffer; 100 mM TRIS–HCl pH 8.0 with 10 mM CaCl2; peptide 100 mM (so in the source); 50 mL of 0.5 mg/mL chymotrypsin stock to 500 mL peptide solution (so in the source); samples at 2, 6, 25, 60 min; HPLC–MS; < 24 = peak not detected at 2 min, 3% detection limit
# Description: (§1) Protease assays: Peptides were dissolved in 100 mM TRIS–HCl buffer (pH 8.0) containing 10 mM CaCl2 at 100 mM concentration. Chymotrypsin (Sigma-Aldrich, Budapest, Hungary) stock solution was 0.5 mg/mL in the same buffer. A total […] peptide solution was measured in a reaction vessel and […] protease stock was added. Samples of […] were taken after 2, 6, 25 and 60 min. The samples were diluted into […] 5% TFA aliquots. The samples were then injected into HPLC–MS using a Phenomenex C18-XB Peptide column (250 × 4.6 mm, […]).
# Chymotrypsin = target: T1, Chymotrypsin (Bos taurus, UniProt P00766); assay: Protease assay with chymotrypsin; format: in vitro ADME; details: chymotrypsin (isolated protease) in buffer; 100 mM TRIS–HCl pH 8.0 with 10 mM CaCl2; peptide 100 mM (so in the source); 50 mL of 0.5 mg/mL chymotrypsin stock to 500 mL peptide solution (so in the source); samples at 2, 6, 25, 60 min; HPLC–MS; < 24 = peak not detected at 2 min, 3% detection limit
# T1 construct: purchased Sigma-Aldrich
# Description: as §1
# ganglioside GM1 = assay: Isothermal titration calorimetry (ITC) with GM1:DPC 1:5 bicelles; format: binding; details: 35 °C, GM1:DPC 1:5 (GM1 300 µM in syringe) injected into 15 µM ligand in cell, pH 7.2 phosphate buffer, one- or two-site fit, experiments repeated twice; for Kd: read-out: Binding affinities (KD) to ganglioside GM1
# Description: Isothermal Titration Calorimetry: ITC was performed using a MicroCal VP-ITC microcalorimeter at 35 °C. The monosialoganglioside GM1 was obtained from Biosynth-Carbosynth (Bratislava, Slovakia, product code: OG03918, C73H131N3O31·xNa, HPLC purity > 95%). The n-dodecylphosphocholine (DPC) was obtained from Avanti (Alabaster, Alabama, product code: 850336, C17H38NO4P, purity > 99%). In individual titrations, 15 µL of solution containing GM1:DPC 1:5 was injected into the ligand solution in the cell from a computer-controlled 300 µL microsyringe at time intervals of 300 s. The GM1:DPC micelle mixture was prepared in the same pH 7.2 phosphate buffer as the ligand in the cell. The concentration of the ligand in the cell was 15 µM. The concentration of GM1 in the syringe was 300 µM. In control experiments, GM1:DPC was titrated into the cell containing buffer without ligand. To rule out lipid clustering, control measurements were performed with pure GM1 in the syringe, which yielded a […], indicating the GM1:DPC interaction in the micelles (Figure S6). No aggregation of the micelles was observed after titration, which rules out any secondary inter-particle effects induced by ligand binding. We note that such an uncontrolled aggregation phenomenon would have been detrimental to the very sensitive ITC detection. Our finding is in agreement with the literature results that mixed micelles of GM1 and DPC are readily formed. The experiments were repeated twice. The experimental data were fitted to one-binding-site or two-independent-site models with adjustable parameters of ΔHb1, Kd1, n1, and ΔHb2, Kd2, n2, respectively. Background subtraction and spline baseline correction was applied prior to the application of a generalized reduced gradient nonlinear least-squares procedure. […] Errors were estimated by using jack-knife resampling.
half-life [1],half-life [2],Kd (ganglioside GM1),Compound,further results
< 0.4 min,< 0.4 min,,NCCCC[C@H](NC(=O)[C@H](Cc1ccc(O)cc1)NC(=O)[C@@H](N)Cc1c[nH]c2ccccc12)C(=O)N[C@@H](Cc1ccc(O)cc1)C(=O)N[C@H](CC(N)=O)Cc1c[nH]c2ccccc12 [WYKYWβ],
6.83 min,< 0.4 min,,NCCCC[C@H](NC(=O)[C@H](Cc1ccc(O)cc1)NC(=O)[C@@H](N)Cc1c[nH]c2ccccc12)C(=O)N[C@H](CC(=O)N[C@@H](Cc1c[nH]c2ccccc12)C(N)=O)Cc1ccc(O)cc1 [WYKYβW],
,,,NCCCC[C@@H](CC(=O)N[C@@H](Cc1ccc(O)cc1)C(=O)N[C@@H](Cc1c[nH]c2ccccc12)C(N)=O)NC(=O)[C@H](Cc1ccc(O)cc1)NC(=O)[C@@H](N)Cc1c[nH]c2ccccc12 [WYKβYW],half-life (Chymotrypsin): 10.8 min
15 min,,,NCCCC[C@H](NC(=O)C[C@H](Cc1ccc(O)cc1)NC(=O)[C@@H](N)Cc1c[nH]c2ccccc12)C(=O)N[C@@H](Cc1ccc(O)cc1)C(=O)N[C@@H](Cc1c[nH]c2ccccc12)C(N)=O [WYβKYW],half-life (Chymotrypsin): 1.25 min
1.83 min,< 0.4 min,,NCCCC[C@H](NC(=O)[C@H](Cc1ccc(O)cc1)NC(=O)C[C@@H](N)Cc1c[nH]c2ccccc12)C(=O)N[C@@H](Cc1ccc(O)cc1)C(=O)N[C@@H](Cc1c[nH]c2ccccc12)C(N)=O [WβYKYW],
,,,"AYKYW [Ala derivative of WYKYW, position 1]",Binding affinities (KD) to ganglioside GM1 (ganglioside GM1): n.f. ^[a]
,,5.75 µM,WAKYW-NH2 [WAKYW],
,,10.5 µM,WYAYW-NH2 [WYAYW],
,,1.69 µM,WYKAW-NH2 [WYKAW],
,,1.06 µM,WYKYA-NH2 [WYKYA],
